Legend:
[1] = molecular target: T1, Jurkat cells expressing CXCR4 (Homo sapiens, UniProt P61073); assay: Chemokine (CXCL12-AF647) binding inhibition assay; settings: CXCL12-AF647 25 ng/mL, read-out: IC50 CXCL-12 binding Jurkat
T1 construct: Jurkat cells expressing CXCR4; endogenous in cells; host or cells: Jurkat cells
Procedure: Jurkat cells expressing CXCR4 were washed once with assay buffer (Hanks' balanced salt solution with 20 mM HEPES buffer and 0.2% bovine serum albumin, pH 7.4) and then incubated for 15 min at room temperature with the test compounds diluted in assay buffer at dose-dependent concentrations. Subsequently, CXCL12-AF647 (25 ng/mL) was added to the compound-incubated cells. The cells were incubated for 30 min at room temperature. Thereafter, the cells were washed twice in assay buffer, fixed in 1% paraformaldehyde in PBS, and analyzed on the FL4 channel of a FACSCalibur flow cytometer equipped with a 635-nm red diode laser (Becton Dickinson, San Jose, Calif., USA).
The percentages of inhibition of CXCL12-AF647 binding were calculated according to the formula: [1−((MFI−MFINC)/(MFIPC−MFINC))]×100 where MFI is the mean fluorescence intensity of the cells incubated with CXCL12-AF647 in the presence of the inhibitor, MFINC is the mean fluorescence intensity measured in the negative control (i.e., autofluorescence of unlabeled cells), and MFIPC is the mean fluorescence intensity of the positive control (i.e., cells exposed to CXCL12-AF647 alone).

[2] = molecular target: T2, CXCR-4 transfected U87 cell line (U87.CXCR4) (Homo sapiens, UniProt P61073); assay: Intracellular CXCL-12-induced calcium mobilization assay (FLIPR); assay type: cell-based; settings: U87.CXCR4 cells; CXCL-12 25-50 ng/mL; compounds added 15 minutes before; read-out: IC50 CXCL-12 Ca2+ flux U87.CXCR4+
T2 construct: expressed in transfected cells; host or cells: U87 cell line (U87.CXCR4)
T2 sequence (P61073 whole entry): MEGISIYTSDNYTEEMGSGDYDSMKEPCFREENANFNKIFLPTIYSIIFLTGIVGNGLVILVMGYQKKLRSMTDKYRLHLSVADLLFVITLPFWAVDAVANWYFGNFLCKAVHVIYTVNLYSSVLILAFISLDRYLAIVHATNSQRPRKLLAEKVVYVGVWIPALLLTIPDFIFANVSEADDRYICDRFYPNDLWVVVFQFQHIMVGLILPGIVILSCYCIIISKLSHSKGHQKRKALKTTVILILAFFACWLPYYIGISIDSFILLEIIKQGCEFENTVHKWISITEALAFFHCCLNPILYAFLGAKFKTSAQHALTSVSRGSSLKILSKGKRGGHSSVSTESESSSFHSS
Procedure: Intracellular calcium mobilization induced by chemokines orchemokine-derived peptides were evaluated using a calcium responsive fluorescent probe and a FLIPR system. The CXCR-4 transfected U87 cell line (U87.CXCR4) cells were seeded in gelatine-coated black-wall 96-well plates at 20,000 cells per well and incubated for 12 hours. Cells were then loaded with the fluorescent calcium probe Fluo-2 acetoxymethyl at 4 μM final concentration in assay buffer (Hanks' balanced salt solution with 20 mM HEPES buffer and 0.2% bovine serum albumin, pH 7.4) for 45 min at 37′C. The intracellular calcium mobilization induced by the CXCL-12 (25-50 ng/mL) was then measured at 37° C. by monitoring the fluorescence as a function of time in all the wells simultaneously using a fluorometric imaging plate reader (FLIPR Tetra, Molecular Devices).

in vitro = settings: human, Caco-2, pH 7.4
Procedure: The goal of this assay was to evaluate the intestinal absorption potential of drug candidates using Caco-2 cell lines.
Experimental Procedure • 1. Pre-warm Pre-warm HBSS Buffer in 37° C. water bath • 2. Sonicate Take compounds from −20° C., sonicate for a few minutes (no less than 1 minute) • 3. Solution preparation
For A-to-B Direction: • HBSS buffer with 0.3% DMSO and 5 μM LY: add 150 μL DMSO and 50 μL LY (5 mM) into 50 ml HBSS buffer (pH 7.4). • HBSS buffer with 0.1% DMSO and 5 μM LY: add 50 μL DMSO and 50 μL LY (5 mM) into 50 mL HBSS buffer (pH 7.4).
For B-to-A Direction: • HBSS buffer with 0.3% DMSO: add 150 μL DMSO into 50 ml HBSS buffer (pH 7.4). HBSS buffer with 0.1% DMSO: add 50 μL DMSO into 50 ml HBSS buffer (pH 7.4).
For A-to-B Direction: • Prepare HBSS buffer with 0.4% DMSO: add 200 μL DMSO into 50 ml HBSS buffer (pH 7.4).
For B-to-A Direction: • Prepare HBSS buffer with 0.4% DMSO and 5 μM LY: add 200 μL DMSO and 50 μL LY (5 mM) into 50 ml HBSS buffer (pH 7.4).
• 4. Measure TEER Take cell culture plate out of incubator, wash the cell monolayers with HBSS buffer, and then measure TEER values at Rm temperature. • 5. Centrifuge Centrifuge the compound solution (from step 3) at 4000 rpm for 5 min before loading to donor chambers. • 6. Dosing Add solution based on the volumes listed in the following table (make sure to take extra 100 μL of donor sample for T0 as Backup).
• 7. Apical LYTO samples To determine LY concentration in the apical chamber, take 100 μL sample from apical chambers into an opaque plate for LYTO. • 8. Pre-warm Pre-warm apical and basolateral plates at 37° C. for about 5 min, then begin transport by placing the apical plate onto basolateral plate. • 9. Incubation Keep the plates in incubator at 37° C. for 90 min. • 10.
• Prepare 1× solution: • 3 μL (20×)+57 μL of 0.4% DMSO HBSS+60 μL ACN with IS (Osalmid or Imipramine)—120 μL (1×) • 11. Transport termination Separate the apical plate from the basolateral plate after 90-min incubation. • 12. Measure LY Take 100 μL samples from basolateral plate to an opaque plate as LYT90. • 13. Measure LY concentrations for LYTO and LYT90 by Fluorometer (at excitation of 485 nm/emission of 535 nm). • 14.
Drug permeability: Papp=(VA/(Area×time))×([drug]accepter/(([drug]initial, donor)×Dilution Factor) • Where VA is the volume in the acceptor well, area is the surface area of the membrane and time is the total transport time in seconds.
For Millicell-24 Cell Culture Plates: surface area of the membrane=0.7 cm^2, VA=0.8 mL (A-to-B) or 0.4 mL (B-to-A)

T1 sequence (P61073 whole entry): as above

Row | Structure (SMILES) | IC50 [1] [nM] | IC50 [2] [nM] | Papp A→B at 90 min, 10 μM (in vitro) [×10⁻⁶ cm/s] | Papp B→A at 90 min, 10 μM (in vitro) [×10⁻⁶ cm/s] | efflux ratio at 90 min, 10 μM (in vitro)
1 | CC(c1ccccn1)N(CCC(N)=O)Cc1ccccn1 (stereo not drawn) [Compound I-11] | 100 to 1000 | ≥ 1000 | 5 to 10 | > 10 | 0.1 to 10
2 | CC(c1ccccn1)N(CCC(N)=O)Cc1nc2ccccc2[nH]1 (stereo not drawn) [Compound I-12, 3-(((1H-benzo[d]imidazol-2-yl)methyl)(1-(pyridin-2-yl)ethyl)amino)propanamide] | 100 to 1000 | ≥ 1000 | < 5 | > 10 | > 30
3 | Cc1cccnc1CN(CCC(N)=O)Cc1ncccc1C [Compound I-14, 3-(Bis((3-methylpyridin-2-yl)methyl)amino)propanamide] | 100 to 1000 | ≥ 1000 | > 10 | > 10 | 0.1 to 10
4 | Cc1cccnc1CN(CCC(N)=O)Cc1ncccc1Cl [Compound I-15] | 100 to 1000 | ≥ 1000 | > 10 | > 10 | 0.1 to 10
5 | c1cnc2c(c1)CCC[C@@H]2N(CCC1CCCCO1)Cc1nc2ccccc2[nH]1 (stereo partly drawn) [Compound I-16] | 100 to 1000 | ≥ 1000 | > 10 | > 10 | 0.1 to 10
6 | COCCCN(Cc1nc2ccccc2[nH]1)[C@H]1CCCc2cccnc21 [Compound I-18] | 0.01 to 100 | 100 to 1000 | – | – | –
7 | OCCCN(Cc1nc2ccccc2[nH]1)[C@H]1CCCc2cccnc21 [Compound I-19] | 0.01 to 100 | 100 to 1000 | > 10 | > 10 | 0.1 to 10
8 | c1cnc2c(c1)CCC[C@@H]2N(CCc1cscn1)Cc1nc2ccccc2[nH]1 [Compound I-20] | 0.01 to 100 | 0.01 to 100 | > 10 | > 10 | 0.1 to 10
9 | NC(=O)CCN(Cc1nc2ccccc2[nH]1)[C@H]1CCCc2cccnc21 [Compound I-21, (S)-3-(((1H-benzo[d]imidazol-2-yl)methyl)(5,6,7,8-tetrahydroquinolin-8-yl)amino)propanamide] | 0.01 to 100 | 100 to 1000 | < 5 | > 10 | > 30
10 | Cn1c(CN(CCC(N)=O)[C@H]2CCCc3cccnc32)nc2ccccc21 [Compound I-22] | 0.01 to 100 | 100 to 1000 | 5 to 10 | > 10 | 10 to 30
11 | CC(=O)NCCCN(Cc1ncccc1C)[C@H]1CCCc2cccnc21 [Compound I-29] | 0.01 to 100 | ≥ 1000 | – | – | –
12 | CC(=O)NCCN(Cc1ncccc1C)[C@H]1CCCc2cccnc21 [Compound I-30] | 0.01 to 100 | 100 to 1000 | – | – | –
13 | CC[C@H]1OC(=O)[C@H](C)[C@@H](O[C@H]2C[C@@](C)(OC)[C@@H](O)[C@H](C)O2)[C@H](C)[C@@H](O[C@@H]2O[C@H](C)C[C@H](N(C)C)[C@H]2O)[C@](C)(O)C[C@@H](C)C(=O)[C@H](C)[C@@H](O)[C@]1(C)O [Erythromycin, reference compound] | – | – | – | – | > 116
14 | COCCc1ccc(OCC(O)CNC(C)C)cc1 (stereo not drawn) [Metoprolol, reference compound] | – | – | > 10 | > 10 | –

The next lines start with the values.

Row | IC50 [1] [nM] | IC50 [2] [nM] | Papp A→B at 90 min, 10 μM (in vitro) [×10⁻⁶ cm/s] | Papp B→A at 90 min, 10 μM (in vitro) [×10⁻⁶ cm/s] | efflux ratio at 90 min, 10 μM (in vitro) | Structure (SMILES)
15 | 0.01 to 100 | ≥ 1000 | – | – | – | CC(c1ccccn1)N(CCc1ccccn1)Cc1ccccn1 (stereo not drawn) [Compound I-1, 2-(Pyridin-2-yl)-N-(1-(pyridin-2-yl)ethyl)-N-(pyridin-2-ylmethyl)ethan-1-amine]
16 | 0.01 to 100 | 0.01 to 100 | > 10 | > 10 | 0.1 to 10 | CC(c1ccccn1)N(CCc1ccccn1)Cc1nc2ccccc2[nH]1 (stereo not drawn) [Compound I-2, N-((1H-benzo[d]imidazol-2-yl)methyl)-2-(pyridin-2-yl)-N-(1-(pyridin-2-yl)ethyl)ethanamine]
17 | 0.01 to 100 | 100 to 1000 | > 10 | > 10 | 0.1 to 10 | Cc1cccnc1CN(CCc1ccccn1)C(C)c1ccccn1 (stereo not drawn) [Compound I-3]
18 | 0.01 to 100 | 100 to 1000 | > 10 | > 10 | 0.1 to 10 | Cc1cccnc1CN(CCc1ccccn1)Cc1ncccc1C [Compound I-4]
19 | 0.01 to 100 | 100 to 1000 | > 10 | > 10 | 0.1 to 10 | Cc1cccnc1CN(CCc1ccccn1)Cc1ncccc1Cl [Compound I-5]
20 | 0.01 to 100 | ≥ 1000 | < 5 | > 10 | 10 to 30 | CC(c1ccccn1)N(CCc1cnc[nH]1)Cc1ccccn1 (stereo not drawn) [Compound I-6]
21 | 0.01 to 100 | ≥ 1000 | < 5 | > 10 | > 30 | CC(c1ccccn1)N(CCc1cnc[nH]1)Cc1nc2ccccc2[nH]1 (stereo not drawn) [Compound I-7, N-((1H-benzo[d]imidazol-2-yl)methyl)-N-(2-(1H-imidazol-5-yl)ethyl)-1-(pyridin-2-yl)ethan-1-amine]
22 | 0.01 to 100 | ≥ 1000 | < 5 | > 10 | 10 to 30 | Cc1cccnc1CN(CCc1cnc[nH]1)C(C)c1ccccn1 (stereo not drawn) [Compound I-8]
23 | 0.01 to 100 | 0.01 to 100 | < 5 | > 10 | 10 to 30 | Cc1cccnc1CN(CCc1cnc[nH]1)Cc1ncccc1C [Compound I-9]
24 | 0.01 to 100 | 100 to 1000 | 5 to 10 | > 10 | 0.1 to 10 | Cc1cccnc1CN(CCc1cnc[nH]1)Cc1ncccc1Cl [Compound I-10]
25 | 0.01 to 100 | ≥ 1000 | > 10 | > 10 | 0.1 to 10 | Cc1cccnc1CN(CCC(N)=O)C(C)c1ccccn1 (stereo not drawn) [Compound I-13]
26 | 0.01 to 100 | ≥ 1000 | – | – | – | c1cnc2c(c1)CCC[C@@H]2N(CCC1CCCO1)Cc1nc2ccccc2[nH]1 (stereo partly drawn) [Compound I-17]

Source: patent publication US20210009557A1, “ACYCLIC CXCR4 INHIBITORS AND USES THEREOF” (X4 Pharmaceuticals, Inc., priority 2017, published 2021)
